According to patent publication US20170320870A1 (Medical Research Council Technology, priority 2009, published 2017):

Target: T1, LRRK2 wild type (recombinant human, catalytic domain amino acids 970-2527, GST-tagged) (Homo sapiens, UniProt Q5S007)
T1 construct: The wild type used was recombinant human, catalytic domain (amino acids 970-2527) GST-tagged, expressed in insect cells; GST; purchased Invitrogen Corporation PV4873; host or cells: insect cells
Test: LRRK2 wild type protein kinase assay ([γ-33P] ATP, peptide substrate […]), IC50
Type: biochemical
Conditions: LRRK2 (variant not given); read-out: Potency score, LRRK2 IC50
From the text: All LRRK2 protein kinases were of human origin and were sourced from Invitrogen Corporation (Carlsbad, Calif. 92008 USA) unless otherwise indicated. The active mutant used was recombinant human, catalytic domain (amino acids 970-2527) containing a G2019S mutation, GST-tagged, expressed in insect cells (Invitrogen Cat#PV4881). The wild type used was recombinant human, catalytic domain (amino acids 970-2527) GST-tagged, expressed in insect cells (Invitrogen Cat#PV4873). The kinase dead mutant used was recombinant human, catalytic domain (amino acids 970-2527) containing a D1994A mutation, GST-tagged, expressed in insect cells (Invitrogen Cat#PM4041AE). No special measures were taken to activate any of the kinases.
All assays were carried out at room temperature (˜21° C.) and were linear with respect to time and enzyme concentration under the conditions used. Assays were performed for 180 min in a 96 well format. LRRK2 was present at a concentration of approximately 5 nM. The enzyme was diluted and assayed in 50 mM Tris-HCl pH7.5, 0.1 mM EGTA, 1 mM DTT and 10 mM MgCl2. The concentration of magnesium chloride in the assay was 10 mM. The [γ-33P] […] The peptide substrate in the assay was […] at 100 μM.
The assays were initiated with Mg/ATP and stopped by the addition of 25 μl/well 50% orthophosphoric acid. Reactions were harvested onto Whatman P81 Unifilter Plates (Fisher Scientific. Loughborough, LE115RG, UK. Cat# FDU-105-020U) using a Tomtec harvester. (Tomtec Hamden, Conn. 06514. USA) Plates were counted using a Perkin Elmer Top Count NX7. (Perkin Elmer, Shelton Conn. 06484-4794 USA)
IC50 values of inhibitors were determined after carrying out assays at 10 different concentrations of each compound in duplicate.

T1 sequence (Q5S007 970-2527): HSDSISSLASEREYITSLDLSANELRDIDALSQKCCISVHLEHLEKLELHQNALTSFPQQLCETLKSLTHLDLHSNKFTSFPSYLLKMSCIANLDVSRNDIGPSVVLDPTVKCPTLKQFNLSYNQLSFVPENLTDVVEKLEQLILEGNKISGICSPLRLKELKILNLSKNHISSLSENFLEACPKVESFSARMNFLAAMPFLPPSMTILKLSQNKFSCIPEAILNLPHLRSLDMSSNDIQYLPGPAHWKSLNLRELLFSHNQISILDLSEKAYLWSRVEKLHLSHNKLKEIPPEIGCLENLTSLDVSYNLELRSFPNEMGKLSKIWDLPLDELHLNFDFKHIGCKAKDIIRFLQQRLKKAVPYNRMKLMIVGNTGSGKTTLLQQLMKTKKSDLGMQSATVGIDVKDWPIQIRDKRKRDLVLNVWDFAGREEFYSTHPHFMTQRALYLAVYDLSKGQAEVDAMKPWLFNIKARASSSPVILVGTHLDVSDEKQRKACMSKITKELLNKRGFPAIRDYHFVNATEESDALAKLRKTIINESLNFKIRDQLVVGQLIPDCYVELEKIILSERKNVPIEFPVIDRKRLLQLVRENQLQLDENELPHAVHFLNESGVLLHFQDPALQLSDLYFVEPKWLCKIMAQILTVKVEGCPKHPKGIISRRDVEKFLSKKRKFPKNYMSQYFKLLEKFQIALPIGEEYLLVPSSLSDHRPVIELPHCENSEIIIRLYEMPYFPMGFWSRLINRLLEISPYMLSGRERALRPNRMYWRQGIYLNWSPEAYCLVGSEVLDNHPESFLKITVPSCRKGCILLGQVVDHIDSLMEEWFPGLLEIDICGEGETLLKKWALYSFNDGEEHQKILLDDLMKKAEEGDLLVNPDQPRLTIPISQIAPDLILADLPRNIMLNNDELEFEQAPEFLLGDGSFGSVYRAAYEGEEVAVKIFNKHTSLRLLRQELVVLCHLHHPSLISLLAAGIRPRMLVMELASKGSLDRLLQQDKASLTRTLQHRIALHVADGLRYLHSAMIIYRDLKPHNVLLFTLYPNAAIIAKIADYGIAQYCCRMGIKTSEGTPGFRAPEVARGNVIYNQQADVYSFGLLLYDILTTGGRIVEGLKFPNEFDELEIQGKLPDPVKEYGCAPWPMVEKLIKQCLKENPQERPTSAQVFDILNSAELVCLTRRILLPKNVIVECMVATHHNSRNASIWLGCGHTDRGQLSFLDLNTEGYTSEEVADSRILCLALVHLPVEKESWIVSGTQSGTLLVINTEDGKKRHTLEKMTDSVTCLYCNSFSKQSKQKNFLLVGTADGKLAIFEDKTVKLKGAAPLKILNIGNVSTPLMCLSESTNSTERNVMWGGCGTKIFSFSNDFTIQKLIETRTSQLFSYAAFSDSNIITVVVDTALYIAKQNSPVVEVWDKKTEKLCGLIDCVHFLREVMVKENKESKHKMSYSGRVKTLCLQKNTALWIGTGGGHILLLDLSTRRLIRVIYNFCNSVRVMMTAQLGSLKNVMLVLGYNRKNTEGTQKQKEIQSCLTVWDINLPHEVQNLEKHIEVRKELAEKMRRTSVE

Compound	IC50
CCOc1ccccc1CNc1nccc2[nH]nc(C)c12 [Example 340, (2-Ethoxy-benzyl)-(3-methyl-1H-pyrazolo[4,3-c]pyridin-4-yl)-amine]	1000 to 10000 nM
COCCNC(=O)c1ccc(Nc2nccc3[nH]nc(C)c23)cc1 [Example 108, N-(2-Methoxy-ethyl)-4-(3-methyl-1H-pyrazolo [4,3-c]pyridin-4-ylamino)-benzamide]	1000 to 10000 nM
Cc1n[nH]c2ccnc(NCCCO)c12 [Example 301, 3-(3-Methyl-1H-pyrazolo[4,3-c]pyridin-4-ylamino)-propan-1-ol]	1000 to 10000 nM
CCOc1ccc(Nc2nccc3[nH]nc(C)c23)cc1 [Example 72, (4-Ethoxy-phenyl)-(3-methyl-1H-pyrazolo[4,3-c]pyridin-4-yl)-amine]	100 to 1000 nM
O=C(Nc1ccc(CCc2n[nH]c3ccnc(NC4CCCCC4)c23)cc1)c1cccnc1 [Example 266, N-{4-[2-(4-Cyclohexylamino-1H-pyrazolo[4,3-c]pyridin-3-yl)-ethyl]-phenyl}-nicotinamide]	< 100 nM
O=C(CCc1n[nH]c2ccnc(NC3CCCCC3)c12)N1CCCC(F)(F)C1 [Example 191, 3-(4-Cyclohexylamino-1H-pyrazolo[4,3-c]pyridin-3-yl)-1-(3,3-difluoro-piperidin-1-yl)-propan-1-one]	< 100 nM
Cc1n[nH]c2ccnc(Nc3ccc(Cl)cc3Cl)c12 [Example 306, (2,4-Dichloro-phenyl)-(3-methyl-1H-pyrazolo[4,3-c]pyridin-4-yl)-amine]	100 to 1000 nM
c1ccc(CCc2n[nH]c3ccnc(NC4CCCCC4)c23)cc1 [Example 213, Cyclohexyl-(3-phenethyl-1H-pyrazolo[4,3-c]pyridin-4-yl)-amine]	< 100 nM
Cc1n[nH]c2ccnc(Nc3ccc(Cl)c(Cl)c3)c12 [Example 305, (3,4-Dichloro-phenyl)-(3-methyl-1H-pyrazolo[4,3-c]pyridin-4-yl)-amine]	100 to 1000 nM
CNC(=O)c1ccc(-c2n[nH]c3ccnc(NC4CCCCC4)c23)cc1 [Example 139, 4-(4-Cyclohexylamino-1H-pyrazolo[4,3-c]pyridin-3-yl)-N-methyl-benzamide]	1000 to 10000 nM
Cc1n[nH]c2ccnc(Nc3cc(F)ccc3F)c12 [Example 308, (2,5-Difluoro-phenyl)-(3-methyl-1H-pyrazolo[4,3-c]pyridin-4-yl)-amine]	100 to 1000 nM
CC(=O)Nc1cccc(CCc2n[nH]c3ccnc(NC4CCCCC4)c23)c1 [Example 222, N-{3-[2-(4-Cyclohexylamino-1H-pyrazolo[4,3-c]pyridin-3-yl)-ethyl]-phenyl}-acetamide]	< 100 nM
Cc1n[nH]c2ccnc(NCCc3ccc(F)cc3)c12 [Example 334, [2-(4-Fluoro-phenyl)-ethyl]-(3-methyl-1H-pyrazolo[4,3-c]pyridin-4-yl)-amine]	100 to 1000 nM
c1ccc([C@@H]2CCCN(CCCc3n[nH]c4ccnc(NC5CCCCC5)c34)C2)cc1 [Example 215, Cyclohexyl-{3-[3-((S)-3-phenyl-piperidin-1-yl)-Propyl]-1H-pyrazolo[4,3-c]pyridin-4-yl}-amine]	1000 to 10000 nM
Cc1n[nH]c2ccnc(NCc3ccco3)c12 [Example 303, Furan-2-ylmethyl-(3-methyl-1H-pyrazolo[4,3-c]pyridin-4-yl)-amine]	1000 to 10000 nM
Cc1cccc(-c2n[nH]c3ccnc(NC4CCCCC4)c23)c1 [Example 149, Cyclohexyl-(3-m-tolyl-1H-pyrazolo[4,3-c]pyridin-4-yl)-amine]	100 to 1000 nM
Cc1n[nH]c2ccnc(Nc3ccc4cn(C)nc4c3)c12 [Example 64, (2-Methyl-2H-indazol-6-yl)-(3-methyl-1H-pyrazolo[4,3-c]pyridin-4-yl)-amine]	1000 to 10000 nM

Compound	IC50
Cc1n[nH]c2ccnc(O[C@@H](C)Cc3ccccc3)c12 [Example 300, 3-Methyl-4-((S)-1-methyl-2-phenyl-ethoxy)-1H-pyrazolo[4,3-c]pyridine]	100 to 1000 nM
CN1CCN(C(=O)CCc2n[nH]c3ccnc(NC4CCCCC4)c23)CC1c1ccccc1 (stereo not shown) [Example 245, 3-(4-Cyclohexylamino-1H-pyrazolo[4,3-c]pyridin-3-yl)-1-(4-methyl-3-phenyl-piperazin-1-yl)-propan-1-one]	100 to 1000 nM
O=C(Nc1cccc(CCc2n[nH]c3ccnc(NC4CCCCC4)c23)c1)c1cocn1 [Example 228, Oxazole-4-carboxylic acid {3-[2-(4-cyclohexylamino-1H-pyrazolo[4,3-c]pyridin-3-yl)-ethyl]-phenyl}-amide]	< 100 nM
Cc1n[nH]c2ccnc(Nc3ccc(C(=O)N4CCCC4)cc3)c12 [Example 113, [4-(3-Methyl-1H-pyrazolo[4,3-c]pyridin-4-ylamino)-phenyl]-pyrrolidin-1-yl-methanone]	100 to 1000 nM
Cc1n[nH]c2ccnc(-c3cccc(F)c3)c12 [Example 51, 4-(3-Fluoro-phenyl)-3-methyl-1H-pyrazolo[4,3-c]pyridine]	1000 to 10000 nM
Cc1n[nH]c2ccnc(N[C@@H](CO)C(C)C)c12 [Example 30, (R)-3-Methyl-2-(3-methyl-1H-pyrazolo[4,3-c]pyridin-4-ylamino)-butan-1-ol]	1000 to 10000 nM
COCCN1CCN(C(=O)CCc2n[nH]c3ccnc(NC4CCCCC4)c23)CC1 [Example 178, 3-(4-Cyclohexylamino-1H-pyrazolo[4,3-c]pyridin-3-yl)-1-[4-(2-methoxy-ethyl)-piperazin-1-yl]-propan-1-one]	100 to 1000 nM
Cc1n[nH]c2ccnc(Nc3ccccc3F)c12 [Example 62, (2-Fluoro-phenyl)-(3-methyl-1H-pyrazolo[4,3-c]pyridin-4-yl)-amine]	100 to 1000 nM
C[C@@H]1CCN(C(=O)CCc2n[nH]c3ccnc(NC4CCCCC4)c23)C1 [Example 246, 3-(4-Cyclohexylamino-1H-pyrazolo[4,3-c]pyridin-3-yl)-1-((R)-3-methyl-pyrrolidin-1-yl)-propan-1-one]	< 100 nM
O=C(Nc1ccncc1)c1ccc(CCc2n[nH]c3ccnc(NC4CCCCC4)c23)cc1 [Example 256, 4-[2-(4-Cyclohexylamino-1H-pyrazolo[4,3-c]pyridin-3-yl)-ethyl]-N-pyridin-4-yl-benzamide]	< 100 nM
Cc1n[nH]c2ccnc(CC3CCCCC3)c12 [Example 126, 4-Cyclohexylmethyl-3-methyl-1H-pyrazolo[4,3-c]pyridine]	1000 to 10000 nM
Cc1n[nH]c2ccnc(NC3CCOCC3)c12 [Example 4, (3-Methyl-1H-pyrazolo[4,3-c]pyridin-4-yl)-(tetrahydro-pyran-4-yl)-amine]	100 to 1000 nM
CCC(CC)Nc1nccc2[nH]nc(C)c12 [Example 41, (1-Ethyl-propyl)-(3-methyl-1H-pyrazolo[4,3-c]pyridin-4-yl)-amine]	100 to 1000 nM
Cc1n[nH]c2ccnc(NCCc3cccc(Cl)c3)c12 [Example 331, [2-(3-Chloro-phenyl)-ethyl]-(3-methyl-1H-pyrazolo[4,3-c]pyridin-4-yl)-amine]	100 to 1000 nM
Cc1n[nH]c2ccnc(NCc3cccc(Cl)c3)c12 [Example 314, (3-Chloro-benzyl)-(3-methyl-1H-pyrazolo[4,3-c]pyridin-4-yl)-amine]	1000 to 10000 nM
Cc1n[nH]c2ccnc(NCCc3ccccc3Cl)c12 [Example 330, [2-(2-Chloro-phenyl)-ethyl]-(3-methyl-1H-pyrazolo[4,3-c]pyridin-4-yl)-amine]	< 100 nM
Cc1n[nH]c2ccnc(Nc3ccc4ncoc4c3)c12 [Example 349, Benzoxazol-6-yl-(3-methyl-1H-pyrazolo[4,3-c]pyridin-4-yl)-amine]	100 to 1000 nM
